Laboratory results: ChEMBL document CHEMBL5291721, “A preclinical secondary pharmacology resource illuminates target-adverse drug reaction associations of marketed drugs” (Nat Commun, 2023)

Key:
D(1A) dopamine receptor = D(1A) dopamine receptor (Homo sapiens, UniProt P21728)
[1] = biological target: T1, Alpha-2A adrenergic receptor (Homo sapiens, UniProt P08913)
T1 sequence (P08913 whole entry): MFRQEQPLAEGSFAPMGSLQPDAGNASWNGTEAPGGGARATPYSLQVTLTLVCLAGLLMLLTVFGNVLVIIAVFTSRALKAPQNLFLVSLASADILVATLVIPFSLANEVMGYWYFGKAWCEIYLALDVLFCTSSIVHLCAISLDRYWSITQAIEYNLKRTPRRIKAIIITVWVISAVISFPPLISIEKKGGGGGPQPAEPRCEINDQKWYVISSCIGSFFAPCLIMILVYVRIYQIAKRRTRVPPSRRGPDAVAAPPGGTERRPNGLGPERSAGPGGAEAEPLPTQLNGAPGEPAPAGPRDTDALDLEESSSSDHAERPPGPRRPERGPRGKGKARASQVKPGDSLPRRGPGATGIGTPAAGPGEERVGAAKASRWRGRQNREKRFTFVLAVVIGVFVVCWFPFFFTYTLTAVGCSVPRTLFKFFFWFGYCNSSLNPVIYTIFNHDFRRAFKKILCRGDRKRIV

[2] = biological target: T2, Retinoic acid receptor alpha (Homo sapiens, UniProt P10276); format: functional, cell-based
T2 sequence (P10276 whole entry): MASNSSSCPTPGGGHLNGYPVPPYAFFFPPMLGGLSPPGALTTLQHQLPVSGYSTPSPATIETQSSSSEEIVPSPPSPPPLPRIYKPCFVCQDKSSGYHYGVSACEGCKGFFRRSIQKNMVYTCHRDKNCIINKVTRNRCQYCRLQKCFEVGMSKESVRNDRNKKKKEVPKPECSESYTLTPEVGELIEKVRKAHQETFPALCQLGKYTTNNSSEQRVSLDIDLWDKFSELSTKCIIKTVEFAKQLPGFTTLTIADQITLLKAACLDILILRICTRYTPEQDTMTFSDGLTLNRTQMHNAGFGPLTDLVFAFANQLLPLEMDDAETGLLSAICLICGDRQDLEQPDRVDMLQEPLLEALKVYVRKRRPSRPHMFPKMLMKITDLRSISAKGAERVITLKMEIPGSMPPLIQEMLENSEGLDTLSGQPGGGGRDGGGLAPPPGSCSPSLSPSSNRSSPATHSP

[3] = biological target: T3, Oxysterols receptor LXR-beta (Homo sapiens, UniProt P55055); format: functional
T3 sequence (P55055 whole entry): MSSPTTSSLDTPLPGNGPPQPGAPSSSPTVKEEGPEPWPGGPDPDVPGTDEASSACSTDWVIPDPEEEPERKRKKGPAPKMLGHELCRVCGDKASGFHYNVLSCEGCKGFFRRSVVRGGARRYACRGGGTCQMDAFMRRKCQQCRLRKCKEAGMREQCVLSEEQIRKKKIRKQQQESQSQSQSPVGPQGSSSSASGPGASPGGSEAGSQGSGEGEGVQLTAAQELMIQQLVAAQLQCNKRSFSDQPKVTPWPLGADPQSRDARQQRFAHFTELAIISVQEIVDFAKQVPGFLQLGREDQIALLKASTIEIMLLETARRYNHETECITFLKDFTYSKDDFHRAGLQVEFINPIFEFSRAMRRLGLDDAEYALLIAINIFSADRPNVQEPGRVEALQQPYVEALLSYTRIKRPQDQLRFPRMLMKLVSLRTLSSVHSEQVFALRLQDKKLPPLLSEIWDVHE

[4] = biological target: T4, Retinoic acid receptor beta (Homo sapiens, UniProt P10826); format: functional, cell-based
T4 sequence (P10826 whole entry): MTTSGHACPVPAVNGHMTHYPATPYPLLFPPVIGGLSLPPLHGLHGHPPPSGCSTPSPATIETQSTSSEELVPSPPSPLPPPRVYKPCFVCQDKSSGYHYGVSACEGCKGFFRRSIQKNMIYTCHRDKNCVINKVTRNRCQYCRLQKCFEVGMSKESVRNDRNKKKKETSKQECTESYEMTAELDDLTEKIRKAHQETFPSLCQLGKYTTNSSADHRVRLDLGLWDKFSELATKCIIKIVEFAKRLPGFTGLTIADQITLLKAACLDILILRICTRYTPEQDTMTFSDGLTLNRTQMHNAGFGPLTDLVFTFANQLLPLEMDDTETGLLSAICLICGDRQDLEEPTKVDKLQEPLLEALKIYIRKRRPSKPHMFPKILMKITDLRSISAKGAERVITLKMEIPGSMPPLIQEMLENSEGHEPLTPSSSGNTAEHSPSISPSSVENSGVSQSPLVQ

[5] = biological target: T4, Retinoic acid receptor beta; format: functional, cell-based; remark: listed apart in the source
Bile acid receptor [6] = biological target: T5, Bile acid receptor (Homo sapiens, UniProt Q96RI1); format: functional
T5 sequence (Q96RI1 whole entry): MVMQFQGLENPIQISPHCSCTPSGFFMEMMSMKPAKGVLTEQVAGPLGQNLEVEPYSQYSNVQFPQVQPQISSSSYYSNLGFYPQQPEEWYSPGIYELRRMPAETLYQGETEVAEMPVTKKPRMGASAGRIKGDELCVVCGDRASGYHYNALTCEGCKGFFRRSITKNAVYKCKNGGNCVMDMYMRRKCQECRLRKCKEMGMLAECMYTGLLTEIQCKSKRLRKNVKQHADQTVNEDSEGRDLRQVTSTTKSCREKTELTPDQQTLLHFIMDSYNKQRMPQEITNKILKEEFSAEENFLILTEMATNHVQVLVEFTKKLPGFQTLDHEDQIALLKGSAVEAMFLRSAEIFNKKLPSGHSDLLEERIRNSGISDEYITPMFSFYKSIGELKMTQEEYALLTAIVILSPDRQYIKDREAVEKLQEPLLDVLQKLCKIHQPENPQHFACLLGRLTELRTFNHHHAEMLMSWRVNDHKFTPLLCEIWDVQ

Bile acid receptor [7] = biological target: T5, Bile acid receptor; format: functional; remark: listed apart in the source
[8] = biological target: T2, Retinoic acid receptor alpha; format: functional, cell-based; remark: listed apart in the source
[9] = biological target: T3, Oxysterols receptor LXR-beta; format: functional; remark: listed apart in the source

Measured: AC50
Further: assay procedure not described here.

Sequence of D(1A) dopamine receptor (P21728 whole entry): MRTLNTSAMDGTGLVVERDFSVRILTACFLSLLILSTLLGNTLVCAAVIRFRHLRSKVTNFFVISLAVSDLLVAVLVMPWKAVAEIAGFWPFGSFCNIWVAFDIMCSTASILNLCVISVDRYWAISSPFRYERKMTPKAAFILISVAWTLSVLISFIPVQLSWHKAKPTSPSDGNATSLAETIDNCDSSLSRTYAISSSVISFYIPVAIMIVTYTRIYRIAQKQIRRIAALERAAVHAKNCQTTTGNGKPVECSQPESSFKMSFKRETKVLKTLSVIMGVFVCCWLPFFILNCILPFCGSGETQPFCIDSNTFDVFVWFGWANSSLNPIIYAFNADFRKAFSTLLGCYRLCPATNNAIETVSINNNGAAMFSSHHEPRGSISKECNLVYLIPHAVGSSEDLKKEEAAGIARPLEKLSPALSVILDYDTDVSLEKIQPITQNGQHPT

CC[C@H]1OC(=O)[C@H](C)[C@@H](O[C@H]2C[C@@](C)(OC)[C@@H](O)[C@H](C)O2)[C@H](C)[C@@H](O[C@@H]2O[C@H](C)C[C@H](N(C)C)[C@H]2O)[C@](C)(O)C[C@@H](C)CN(C)[C@H](C)[C@@H](O)[C@]1(C)O [AZITHROMYCIN]
> 30 µM: D(1A) dopamine receptor

CCc1oc2ccccc2c1C(=O)c1cc(I)c(O)c(I)c1 [BENZIODARONE]
> 30 µM: D(1A) dopamine receptor

O=C(OCC(O)CO)c1ccccc1Nc1ccnc2cc(Cl)ccc12 (stereo not given) [GLAFENINE]
> 30 µM: [1]

CN1C(C(=O)Nc2ccccn2)=C(O)c2sc(Cl)cc2S1(=O)=O [LORNOXICAM]
> 30 µM: [2] | [3] | [4] | [5] | Bile acid receptor [6] | Bile acid receptor [7] | [8] | [9]

Cc1c(C(=O)NN2CCCCC2)nn(-c2ccc(Cl)cc2Cl)c1-c1ccc(Cl)cc1 [RIMONABANT]
> 30 µM: [2] | [3] | [4] | [5] | Bile acid receptor [6] | Bile acid receptor [7] | [8] | [9]

Cc1cn([C@H]2C=C[C@@H](CO)O2)c(=O)[nH]c1=O [STAVUDINE]
> 30 µM: [1]
